# Assay results: patent publication US12522594B2, “2-heteroaryl-3-oxo-2,3-dihydropyridazine-4-carboxamides for the treatment of cancer” (Deutsches Krebsforschungszentrum, priority 2017, dated 2026)
# What was measured:
# Format in all cases: cell-based
# AHR [1] = molecular target: T1, AHR (Homo sapiens, UniProt P35869); assay: In vitro assay 3: AHR-regulated CYP1A1 expression in human cell line (U937, qPCR, KA stimulation); details: U937 cells, 200 uM KA, 6 hours, CYP1A1 expression by qPCR; read-out: Assay 3: Hum CYP1A1 Antagonism IC50
# T1 sequence (P35869 11-848): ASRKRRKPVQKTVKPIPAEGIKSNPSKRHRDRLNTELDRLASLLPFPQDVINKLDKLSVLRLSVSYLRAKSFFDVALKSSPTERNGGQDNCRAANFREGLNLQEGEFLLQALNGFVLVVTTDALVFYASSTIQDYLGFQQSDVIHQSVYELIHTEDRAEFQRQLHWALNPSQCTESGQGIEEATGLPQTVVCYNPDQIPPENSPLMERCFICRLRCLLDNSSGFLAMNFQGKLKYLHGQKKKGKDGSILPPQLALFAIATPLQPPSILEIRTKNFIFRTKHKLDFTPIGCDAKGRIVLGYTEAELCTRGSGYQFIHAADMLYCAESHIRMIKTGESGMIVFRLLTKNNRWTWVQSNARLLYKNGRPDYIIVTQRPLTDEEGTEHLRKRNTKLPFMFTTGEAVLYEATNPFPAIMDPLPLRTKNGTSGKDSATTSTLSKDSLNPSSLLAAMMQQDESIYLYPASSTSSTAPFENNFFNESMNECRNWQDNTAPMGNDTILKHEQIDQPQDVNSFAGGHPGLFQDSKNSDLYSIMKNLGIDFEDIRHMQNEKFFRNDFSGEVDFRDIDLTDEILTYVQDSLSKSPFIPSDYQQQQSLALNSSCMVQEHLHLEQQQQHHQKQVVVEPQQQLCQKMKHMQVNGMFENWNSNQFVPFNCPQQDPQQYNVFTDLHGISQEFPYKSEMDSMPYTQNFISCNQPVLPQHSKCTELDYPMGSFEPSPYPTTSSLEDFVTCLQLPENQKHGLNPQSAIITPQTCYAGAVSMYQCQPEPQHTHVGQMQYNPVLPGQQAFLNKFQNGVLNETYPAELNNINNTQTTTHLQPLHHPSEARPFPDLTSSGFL
# In short: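 U937 human monocytic cells were stimulated with 200 uM KA for 6 h, with or without compound at eight concentrations from 1 nM to 3 uM, in duplicate. CYP1A1 mRNA was quantified by Taqman qPCR as fold expression normalised to HPRT. Unstimulated cells served as negative control.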
# AHR [2] = molecular target: T1, AHR; assay: In vitro assay 1: antagonism in human cell line (transactivation assay, U87 cells prestimulated with kynurenic acid, DRE firefly luciferase reporter); set-up: host or cells: U87 glioblastoma cells, stably transfected with DRE firefly luciferase and renilla reporter constructs; details: 150 uM kynurenic acid, 20 hours, read-out: Assay 1: AHR-luc Hum Antagonism IC50
# In short: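 Antagonism measured after kynurenic acid prestimulation in U87 cells that express AHR endogenously and stably harbor a firefly luciferase gene under DRE control plus a constitutive renilla construct. Positive and negative controls served for normalization.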
# AHR [3] = molecular target: T1, AHR; assay: In vitro assay 2: agonism in human cell line (transactivation assay, U87 cells, DRE firefly luciferase reporter); set-up: host or cells: U87 glioblastoma cells, stably transfected with DRE firefly luciferase and renilla reporter constructs; details: no kynurenic acid, 20 hours, read-out: Assay 2: AHR-luc Hum Agonism IC50
# In short: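 Agonist readout: DRE firefly luciferase, with constitutive renilla reporter, in stably transfected U87 cells expressing AHR endogenously. Normalization used positive control (300 uM kynurenic acid) and negative control.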
IC50 (AHR [1]),IC50 (AHR [2]),IC50 (AHR [3]),SMILES
0.000905 µM,0.00115 µM,> 20 µM,"O=C(N[C@H](CO)C(F)(F)F)c1cc(-c2ccc(C(F)(F)F)cc2)nn(-c2cccnc2)c1=O [Example 112, 3-Oxo-2-(pyridin-3-yl)-N-[(2R)-1,1,1-trifluoro-3-hydroxypropan-2-yl]-6-[4-(trifluoromethyl)phenyl]-2,3-dihydropyridazine-4-carboxamide]"
0.0109 µM,0.00263 µM,> 20 µM,"CC(C)(O)CNC(=O)c1cc(-c2ccc(C(F)(F)F)cc2)nn(-c2cccnc2)c1=O [Example 115, N-(2-Hydroxy-2-methylpropyl)-3-oxo-2-(pyridin-3-yl)-6-[4-(trifluoromethyl)phenyl]-2,3-dihydropyridazine-4-carboxamide]"
0.057 µM,0.0451 µM,> 20 µM,"C[C@H](CO)NC(=O)c1cc(-c2ccc(C(F)(F)F)cc2)nn(-c2cccnc2)c1=O [Example 118, N-[(2R)-1-Hydroxypropan-2-yl]-3-oxo-2-(pyridin-3-yl)-6-[4-(trifluoromethyl)phenyl]-2,3-dihydropyridazine-4-carboxamide]"
0.00572 µM,0.00306 µM,> 20 µM,"C[C@@H](CO)NC(=O)c1cc(-c2ccc(C(F)(F)F)cc2)nn(-c2cccnc2)c1=O [Example 119, N-[(2S)-1-Hydroxypropan-2-yl]-3-oxo-2-(pyridin-3-yl)-6-[4-(trifluoromethyl)phenyl]-2,3-dihydropyridazine-4-carboxamide]"
0.0044 µM,0.00382 µM,> 20 µM,"O=C(N[C@H]1CCCC[C@H]1O)c1cc(-c2ccc(Cl)cc2)nn(-c2cccnc2)c1=O [Example 125, 6-(4-Chlorophenyl)-N-[(1S,2R)-2-hydroxycyclohexyl]-3-oxo-2-(pyridin-3-yl)-2,3-dihydropyridazine-4-carboxamide]"
0.00515 µM,0.0046 µM,> 20 µM,"O=C(N[C@H]1CCCC[C@H]1O)c1cc(-c2ccc(OC(F)(F)F)cc2)nn(-c2cccnc2)c1=O [Example 126, N-[(1S,2R)-2-Hydroxycyclohexyl]-3-oxo-2-(pyridin-3-yl)-6-[4-(trifluoromethoxy)phenyl]-2,3-dihydropyridazine-4-carboxamide]"
0.00642 µM,0.00654 µM,> 20 µM,"O=C(N[C@H]1CCC[C@@H]1O)c1cc(-c2ccc(Cl)cc2)nn(-c2cccnc2)c1=O [Example 130, 6-(4-Chlorophenyl)-N-[(1S,2S)-2-hydroxycyclopentyl]-3-oxo-2-(pyridin-3-yl)-2,3-dihydropyridazine-4-carboxamide]"
0.00989 µM,0.00768 µM,> 20 µM,"O=C(N[C@H](CO)C(F)(F)F)c1cc(-c2ccc(OC(F)(F)F)cc2)nn(-c2cccnc2)c1=O [Example 134, 3-Oxo-2-(pyridin-3-yl)-N-[(2R)-1,1,1-trifluoro-3-hydroxypropan-2-yl]-6-[4-(trifluoromethoxy)phenyl]-2,3-dihydropyridazine-4-carboxamide]"
0.00916 µM,0.0092 µM,> 20 µM,"O=C(N[C@H]1CCC[C@@H]1O)c1cc(-c2ccc(C(F)F)cc2)nn(-c2cccnc2)c1=O [Example 139, 6-[4-(Difluoromethyl)phenyl]-N-[(1S,2S)-2-hydroxycyclopentyl]-3-oxo-2-(pyridin-3-yl)-2,3-dihydropyridazine-4-carboxamide]"
0.0112 µM,0.0188 µM,> 20 µM,"O=C(NC(CO)C(F)(F)F)c1cc(-c2ccc(OC(F)(F)F)cc2)nn(-c2cccnc2)c1=O (stereo not drawn) [Example 149, 3-Oxo-2-(pyridin-3-yl)-N-(1,1,1-trifluoro-3-hydroxypropan-2-yl)-6-[4-(trifluoromethoxy)phenyl]-2,3-dihydropyridazine-4-carboxamide]"
0.0213 µM,0.0241 µM,> 20 µM,"Cc1ccc(-c2cc(C(=O)N[C@@H](C)CO)c(=O)n(-c3cccnc3)n2)cc1 [Example 152, N-[(2S)-1-Hydroxypropan-2-yl]-6-(4-methylphenyl)-3-oxo-2-(pyridin-3-yl)-2,3-dihydropyridazine-4-carboxamide]"
0.0217 µM,0.0242 µM,> 20 µM,"C[C@@H](CO)NC(=O)c1cc(-c2ccc(OC(F)(F)F)cc2)nn(-c2cccnc2)c1=O [Example 153, N-[(2S)-1-Hydroxypropan-2-yl]-3-oxo-2-(pyridin-3-yl)-6-[4-(trifluoromethoxy)phenyl]-2,3-dihydropyridazine-4-carboxamide]"
0.112 µM,0.0661 µM,> 20 µM,"O=C(N[C@H]1COCC[C@H]1O)c1cc(-c2ccc(Cl)cc2)nn(-c2cccnc2)c1=O [Example 175, 1,5-Anhydro-2-({[6-(4-chlorophenyl)-3-oxo-2-(pyridin-3-yl)-2,3-dihydropyridazin-4-yl]carbonyl}amino)-2,4-dideoxy-D-erythro-pentitol]"
0.0388 µM,0.0661 µM,> 20 µM,"O=C(N[C@H]1COCC[C@H]1O)c1cc(-c2ccc(OC(F)(F)F)cc2)nn(-c2cccnc2)c1=O [Example 176, 1,5-Anhydro-2,4-dideoxy-2-[({3-oxo-2-(pyridin-3-yl)-6-[4-(trifluoromethoxy)phenyl]-2,3-dihydropyridazin-4-yl}carbonyl)amino]-D-erythro-pentitol]"
0.0043 µM,0.341 µM,> 20 µM,"C[C@@H](CO)NC(=O)c1cc(-c2ccc(Cl)cc2)nn(-c2ccn(C)n2)c1=O [Example 192, 6-(4-Chlorophenyl)-N-[(2S)-1-hydroxypropan-2-yl]-2-(1-methyl-1H-pyrazol-3-yl)-3-oxo-2,3-dihydropyridazine-4-carboxamide]"
0.00303 µM,0.352 µM,> 20 µM,"Cc1cc(-n2nc(-c3ccc(Cl)cc3)cc(C(=O)N[C@@H](C)CO)c2=O)[nH]n1 [Example 193, 6-(4-Chlorophenyl)-N-[(2S)-1-hydroxypropan-2-yl]-2-(3-methyl-1H-pyrazol-5-yl)-3-oxo-2,3-dihydropyridazine-4-carboxamide]"
0.0076 µM,0.00309 µM,> 20 µM,"C[C@@H](CO)NC(=O)c1cc(-c2ccc(Cl)cc2)nn(-c2cnsc2)c1=O [Example 194, (+)-6-(4-Chlorophenyl)-N-[(2S)-1-hydroxypropan-2-yl]-3-oxo-2-(1,2-thiazol-4-yl)-2,3-dihydropyridazine-4-carboxamide]"
0.00155 µM,0.001 µM,> 20 µM,"Cn1cc(-n2nc(-c3ccc(C(F)(F)F)cc3)cc(C(=O)N[C@H]3CCC[C@H]3O)c2=O)cn1 [Example 204, N-[(1S,2R)-2-Hydroxycyclopentyl]-2-(1-methyl-1H-pyrazol-4-yl)-3-oxo-6-[4-(trifluoromethyl)phenyl]-2,3-dihydropyridazine-4-carboxamide]"
0.00202 µM,0.00146 µM,> 20 µM,"Cn1cc(-n2nc(-c3ccc(C(F)(F)F)cc3)cc(C(=O)N[C@H]3CCC[C@@H]3O)c2=O)cn1 [Example 210, N-[(1S,2S)-2-Hydroxycyclopentyl]-2-(1-methyl-1H-pyrazol-4-yl)-3-oxo-6-[4-(trifluoromethyl)phenyl]-2,3-dihydropyridazine-4-carboxamide]"
